Laboratory results: patent US7201899B2, “Materials and methods for management of hyperacute rejection in human xenotransplantation” (BresaGen Limited, priority 1994, dated 2007)

Assays:
PAE's = assay: Cytotox LDH release assay: effect of sugars on lysis of PAE's by human serum; type: cell-based, porcine; settings: 50% human serum, sugar 1 mM to 100 mM
Description: B. LDH Release Assay • 1. […] Controls: • a) Spontaneous release (no antibody or complement) • 25 μl labeled cells • 75 μl RPMI/10% FCS (heat inactivated) • b) Maximum release • 25 μl labeled cells • 50 μl 16% Triton X-100 • 25 μl RPMI/10% FCS (heat inactivated) • 3. Calculation of % Lysis: % Lysis=Experimental release−(Spontaneous release cpm+sugar cpm)×100 Maximum release−(Spontaneous release cpm+sugar cpm) • 4. Experimental Design:
The effect of adding the disaccharide sugars melibiose ([…]) and lactose (Gal β1→4 Glu) on the lysis of PAE's by human serum was assessed using the Cytotox non-radioactive LDH release assay. PAE's were incubated in the presence of 50% human serum as the source of xenoantibody and complement, together with various concentrations of each sugar (1 mM to 100 mM).

PK-1 and PAE's cells = assay: Antibody staining and FACS analysis of porcine cells; type: binding; settings: for inhibition of anti-GAL IgM and/or IgG staining of porcine cells by sugar: anti-GAL antibodies pre-incubated with sugar (0.1 M) at 37° C. for 30 min; for decrease of anti-GAL antibody staining of PAE's (FIG. 1): anti-GAL antibody pre-incubated with sugar, versus anti-GAL antibody alone
Description: C. Antibody Staining and FACS Analysis • 1) Add 2 ml TED to a 75 cm^2 culture flask containing PK-1 or PAE'S, and incubate at room temperature for 10 min. • 2) Add RPMI plus 10% FCS (5 ml) to neutralize trypsin. • 3) Pellet cells by centrifugation (700 g, 5 min, • 4) Wash cells by resuspension and centrifugation in Hanks Buffer (×2). • 5) Pellet cells by centrifugation (700 g, 5 min, 4° C.). • 6) Resuspend cell pellet in Hanks buffer containing purified anti-GAL antibodies, GAL-depleted serum or GAL-depleted IgG and incubate at 4° C. for 60 min. All antibodies were used undiluted, or diluted 1:2 or 1:4 in Hanks buffer. • 7) Add 1 ml of Hanks Buffer, pellet cells by centrifugation and aspirate off supernatant. • 8) Resuspend pellet in FITC-labelled sheep-anti-human IgG Fab2 or IgM Fab2 (Silenus, Hawthorn, Australia) diluted 1:80 in Hanks buffer. • 9) Incubate for 30 min. at 4° C. • 10) Wash three times with Hanks buffer; resuspend pellet from final wash in 0.5 ml Hanks buffer. • 11) Analyze stained samples using a FACScan II (Becton Dickinson) according to the manufacturer's instructions.
The specificity of the anti-GAL antibody binding to porcine cells was determined by examining the ability of sugars of various structures to inhibit antibody binding. In these competition studies the anti-GAL antibodies were pre-incubated with sugar (0.1 M) at 37° C. for 30 min before adding to the cells.

pig RBC = assay: Hemagglutination of pig RBC by human serum: sugar inhibition; type: cell-based; settings: for Inhibitory Concentration: inhibition of pig RBC hemagglutination by pooled human AB serum; for concentration range inhibiting agglutination (in words): pig RBC agglutination by human serum
Description: The methods used to investigate the hemagglutination of pig red blood cells (RBC's) by human serum was adapted from the methods described by Galili, J. Exp. Med. 160: 1579–81 (1984) and Severson, Immunol. 96: 785–789 (1966).
A. Media/Solution Preparation • 1. Human Serum Albumin (HSA) (CSL, Melbourne, Australia) (5 mg/ml) was dissolved in PBS, filter sterilized, and stored at 4° C. • 2. Preparation of sugars: • 1 M stock solutions of sugar were prepared by dissolving the amount indicated in 100 ml of PBS. Sodium azide was added (0.02%) and solutions stored at 4° C.
B. Preparation of Pig RBC'S • 1. Heparinised pig blood (Animal Resources, Clayton, Australia) is centrifuged at 800 RPM for 10 min to pellet the RBC. • 2. The RBC pellet is washed by resuspension in PBS (10 ml) and recentrifugation (repeated 3 times). After the final wash, the RBC pellet is resuspended in 10 ml PBS. • 3. A 0.5% solution of RBC's is prepared by adding 50 ul RBC solution (from step 2, above) to 10 ml PBS containing 0.5 g/100 ml of HSA.
C. Preparation of 96-well Microtitre Plates (Titretek. USA) • 1. Add 25 ul of PBS to each well. • 2. Add 25 ul of pooled human AB serum (CSL, Melbourne, Australia) to column 1 and serially dilute by removing 25 ul from column 1 and adding to column 2, then repeating by sequentially removing and adding 25 ul from and to each well across the plate, finally discarding 25 μl from column 11 and adding no serum to column 12. • 3. Add 25 ul of sugar solution to each row in decreasing concentrations down rows. No sugar solution is added to the final row. • 4. Incubate at 4° C. overnight and then at 37° C. for 30 min. • 5. Add 50 ul of 0.5% pig RBC to each well; vortex and incubate at room temperature for 2 hours. Determine agglutination visually. II. Results

Structure (SMILES) | protection of PAE's from lysis by human serum (PAE's) | inhibition of anti-GAL IgM and/or IgG staining of porcine cells by sugar (PK-1 and PAE's cells) | decrease of anti-GAL antibody staining of PAE's (FIG. 1) (PK-1 and PAE's cells) | Inhibitory Concentration (pig RBC) | concentration range inhibiting agglutination (in words) (pig RBC)
O=C[C@H](O)[C@@H](O)[C@H](O)[C@H](O)CO[C@H]1O[C@H](CO)[C@H](O)[C@H](O)[C@H]1O [Melibiose, 6-O-α-D-galactopyranosyl-D-glucose] | protected the pig cells from lysis | inhibited | approximately 10 fold less | 0.0005 M | μM to mM range
OC[C@H]1O[C@@H](O[C@H]2[C@H](O)[C@@H](O)[C@@H](O)O[C@@H]2CO)[C@H](O)[C@@H](O)[C@H]1O [Lactose, 4-O-β-D.galactopyranosyl-α-D-glucose] | not | not inhibited | not affected significantly | >10^−1M | only inhibitory when very high concentrations were used
